We go through three molecules from publication PMC9855884, “Glycosylated Lipopeptides—Synthesis and Evaluation of Antimicrobial Activity and Cytotoxicity” (Biomolecules, 2023).

Data set [1] relates to K. pneumoniae ATCC 700603. The format is cell-based, Klebsiella pneumoniae. The conditions noted are these: ATCC 700603, 18 h. How it is done: (§1) The Acinetobacter baumannii ATCC BAA-1605, Enterococcus faecium ATCC 700221, Klebsiella aerogenes ATCC 13048, Klebsiella pneumoniae ATCC 700603, Pseudomonas aeruginosa ATCC 9027, Staphylococcus aureus ATCC 33591, Candida glabrata ATCC 15126, strains were acquired from the American Type Culture Collection (ATCC). All the strains were stored at −80 °C in Roti-Store cryo vials and were transferred into fresh Mueller–Hinton broth (MHB, Becton Dickinson, Warsaw, Poland) for bacteria or RPMI-1640 (Sigma-Aldrich, Steinheim, Germany) for fungi before the tests and incubated for 24 h at 37 °C. Then, the cultures were seeded on the Mueller–Hinton agar (BioMaxima, Lublin, Poland) or Sabouraud dextrose agar (SDA, BioMaxima, Lublin, Poland) plates, respectively, and incubated as just mentioned. These agar cultures were used for further microbiological assays. Cell densities for all assays were adjusted spectrophotometrically (Multiskan GO Microplate Spectrophotometer, Thermo Fisher Scientific, Vantaa, Finland) at 600 and 530 nm for bacteria and fungi, respectively.
The MICs were determined using a broth microdilution method according to the Clinical and Laboratory Standard Institute guidelines. For this purpose, initial inoculums of bacteria (5 × 10^5 CFU/mL) in MHB and yeasts (2 × 10^3 CFU/mL) in RPMI-1640 with 2% D-glucose were exposed to the ranging concentration of lipopeptides (1–512 μg/mL) and incubated at 37 °C for 18 h and 24 h, respectively. The experiments were conducted on 96-well microtiter polystyrene plates (Kartell, Italy). The growth was assessed visually after incubation and the MIC was assumed as the lowest peptide concentration at which a noticeable growth of microorganisms was inhibited. All experiments were conducted in triplicate.

A further data set concerns S. aureus biofilm. It counts as cell-based, Staphylococcus aureus. The conditions noted are these: 24 h. How it is done:
as §1
(§2) The MBECs were determined as previously described, using 96-well polystyrene flat-bottom plates. For this purpose, 24 h cultures of microorganisms were diluted to obtain a final density of 5.0 × 10^5 CFU/mL and 2.0 × 10^5 CFU/mL of bacteria and fungi, respectively. Microorganisms were diluted in MHB or RPMI-1640 with 2% D-glucose (bacteria and fungi, respectively). Briefly, 100 µL of cell suspension was added into the test plates. After 24 h of incubation at 37 °C, the wells were rinsed three times with a phosphate buffer saline (PBS, pH 7.4) to remove non-adherent cells. Subsequently, 100 μL of the test compounds over the concentration range (1–512 μg/mL) were added to each well. After 24 h of incubation at 37 °C, 20 μL of a cell viability reagent was added (resazurin, 4 g/L; Sigma Aldrich, St. Louis, MO, USA). The MBEC was read after 1 h. The determined values were recorded as the lowest concentration at which the reduction of resazurin (from blue to pink) […]. All experiments were conducted in triplicate.

For another data set, the system named is K. pneumoniae biofilm. It counts as cell-based, Klebsiella pneumoniae. The conditions noted are these: 24 h. How it is done: as §1, §2
A further data set concerns A. baumannii biofilm. It counts as cell-based, Acinetobacter baumannii. The conditions noted are these: 24 h. How it is done:
as §1, §2

The subject of a further data set is P. aeruginosa biofilm. It counts as cell-based, Pseudomonas aeruginosa. The conditions noted are these: 24 h. How it is done: as §1, §2
The next data set concerns C. glabrata biofilm. The format is cell-based, Candida glabrata. The conditions noted are these: 24 h. How it is done: as §1, §2
A short description of another data set: MTT assay, cytotoxicity. The conditions noted are these: human, HaCaT keratinocytes, 24 h incubation at 37 °C, 0.5–500 μg/mL, six replicates per concentration, repeated at least twice. The format is cell-based, human. How it is done:
To evaluate the cytotoxicity of the test peptides (IC50), the classic MTT assay on 96-well plates was performed for human keratinocytes (HaCaT) which were acquired from the ATCC. The assay was based on colorimetric determination of the cell metabolic activity where the color intensity reflected the number of live cells that could be measured spectrophotometrically. The cell line was cultured in a Dulbecco’s modified Eagle Medium (Invitrogen) supplemented with 10% fetal bovine serum (v/v), 100 units/mL of penicillin, 100 μg/mL of streptomycin, and 2 mM L-glutamine and was kept at 37 °C in a humidified 5% CO2 incubator. Briefly, a day after plating of 500 cells per well, a series of concentrations (0.5–500 μg/mL) of the test compounds were applied. DMSO was added to the control cells at a final concentration of 1.0% (v/v), which was related to the maximum concentration of the solvent compounds used in the experiment. After 24 h of incubation at 37 °C (humidified 5% CO2 incubator) with the peptides, a medium containing 1 mg/mL of MTT was added to the wells up to a final concentration of 0.5 mg/mL. Subsequently, the plates were incubated at 37 °C for 4 h. Then, the medium was aspirated, and the formazan product was solubilized with DMSO. The background absorbance at 630 nm was subtracted from that at 570 nm for each well (Epoch, BioTek Instruments, Winooski, VT, USA). Six replicates were conducted for each concentration. All experiments were repeated at least twice and the resulting IC50 values were calculated with a GraFit 7 software (v. 7.0, Erithacus, Berkley, CA, USA).
The selectivity indexes were calculated for all the strains as IC50/MIC. According to IC50, in most cases, glycosylation caused only a slight decrease in toxicity. However, in contrast with SI calculated for HC50, the differences between USCLs and gUSCLs are not so distinct. […] Moreover, toxicity of USCLs and gUSCLs is high and exceeds their antimicrobial activity. The lipopetides were not selective against Gram-negative strains (K. pneumoniae, A. baumannii, P. aeruginosa, K. aerogenes) over human cells. A few USCLs were selective (SI > 1) against E. faecium and S. aureus with SI up to 1.87; and some gUSCLs were selective against E. faecium but not against S. aureus, with SI between 0.63 and 1.73. […] In this case, SI of gUSCLs was noticeably […] than that of corresponding parent USCLs (2.07, 1.99, 2.67 vs. 2.53, 2.36, 3.46, respectively). Selectivity indexes were plotted against adjusted retention time (Figures S15–S21). A moderate linear correlation was found in USCLs and K. pneumoniae, C. glabrata, and gUSCLs and K. pneumoniae, K. aerogenes (R^2 between 0.6064 and 0.6481). A relatively high linear correlation was obtained for USCLs and K. aerogenes (R^2 of 0.8214) and also for gUSCLs and C. glabrata (R^2 of 0.9223).

Converted amounts (≈) assume the structure as drawn. Where a SMILES comes first, the peptide text is derived from it. The star is where a group is joined. βGlcNAc = CC(=O)N[C@@H]1[C@@H](O)[C@H](O)[C@@H](CO)O[C@H]1*; Stearoyl = CCCCCCCCCCCCCCCCCC(=O)*

With `CCCCCCCCCCCCCCCCCC(=O)N[C@@H](CO[C@@H]1O[C@H](CO)[C@@H](O)[C@H](O)[C@H]1NC(C)=O)C(=O)N[C@@H](CCCNC(=N)N)C(=O)N[C@@H](CCCNC(=N)N)C(N)=O` [Peptide 16, C18-S(GlcNAc)RR-NH2] (Stearoyl-Ser(βGlcNAc)-Arg-Arg-NH2), the MIC in data set [1] is 64 µg/mL (≈ 72.2 µM). Further, the MBEC with S. aureus biofilm amounted to 256 µg/mL; with K. pneumoniae biofilm, 256 µg/mL; in the data set with A. baumannii biofilm, 512 µg/mL; in the data set with P. aeruginosa biofilm, 512 µg/mL; in the data set on C. glabrata biofilm, 64 µg/mL. In “MTT assay, cytotoxicity”, this molecule had an IC50 at 24 h of 10.1 ± 0.66 µg/mL (≈ 11.4 µM).

Consider `CCCCCCCCCCCCCCCCCC(=O)N[C@@H](CCCNC(=N)N)C(=O)N[C@@H](CO[C@@H]1O[C@H](CO)[C@@H](O)[C@H](O)[C@H]1NC(C)=O)C(=O)N[C@@H](CCCNC(=N)N)C(N)=O` [Peptide 17, C18-RS(GlcNAc)R-NH2] (Stearoyl-Arg-Ser(βGlcNAc)-Arg-NH2), for which the MIC in data set [1] is given as 16 µg/mL (≈ 18.1 µM). Moreover, the MBEC in the data set on S. aureus biofilm is listed as 128 µg/mL; with K. pneumoniae biofilm, 256 µg/mL; with A. baumannii biofilm, 512 µg/mL; in the data set on P. aeruginosa biofilm, over 512 µg/mL; with C. glabrata biofilm it was 64 µg/mL. The molecule further gave an IC50 at 24 h in the data set “MTT assay, cytotoxicity” of 9.45 ± 0.89 µg/mL (≈ 10.7 µM).

With `CCCCCCCCCCCCCCCCCC(=O)N[C@@H](CCCNC(=N)N)C(=O)N[C@@H](CCCNC(=N)N)C(=O)N[C@@H](CO[C@@H]1O[C@H](CO)[C@@H](O)[C@H](O)[C@H]1NC(C)=O)C(N)=O` [Peptide 18, C18-RRS(GlcNAc)-NH2] (Stearoyl-Arg-Arg-Ser(βGlcNAc)-NH2), the MIC in data set [1] turned out to be 32 µg/mL (≈ 36.1 µM). In addition, the MBEC in the data set on S. aureus biofilm is listed as 128 µg/mL; with K. pneumoniae biofilm, 128 µg/mL; in the data set on A. baumannii biofilm, 256 µg/mL; in the data set on P. aeruginosa biofilm, 512 µg/mL; in the data set with C. glabrata biofilm it was 128 µg/mL. The IC50 at 24 h in the data set “MTT assay, cytotoxicity” was found to be 13.8 ± 1.71 µg/mL (≈ 15.6 µM).

What is called MIC is the smallest concentration in the dilution series that meets the test's criterion for growth inhibition. A high value points to a less susceptible organism. What is called IC50 is the concentration at which inhibition is half-maximal. Low readings indicate greater potency, high ones weaker potency.
